Source: patent publication EP4603105A1, “PHARMACEUTICAL COMPOSITION CONTAINING CYCLIC COMPOUND HAVING SELECTIVE KRAS INHIBITORY EFFECT AGAINST HRAS AND NRAS” (CHUGAI SEIYAKU KABUSHIKI KAISHA, priority 2022, dated 2024)
Where a SMILES comes first, the peptide text is derived from it. Bridges are numbered along the chain shown (N, C = ends). [ ]: non-standard residue; d: D form. The star is where a group is joined. hPhe(3-Cl-4-CF3) = N[C@@H](CCc1ccc(C(F)(F)F)c(Cl)c1)C(=O)O; NPrPhe(4-CF3) = CCCN[C@@H](Cc1ccc(C(F)(F)F)cc1)C(=O)O; NEtPhe(4-Me) = CCN[C@@H](Cc1ccc(C)cc1)C(=O)O; NMeGly(cPent) = CN[C@H](C(=O)O)C1CCCC1; NMeD = CN[C@@H](CC(=O)O)C(=O)O; NMeL = CN[C@@H](CC(C)C)C(=O)O; Morpholide = C1CN(*)CCO1; Ac5c = NC1(C(=O)O)CCCC1; Ac4c = NC1(C(=O)O)CCC1; Sar = CNCC(=O)O

Experiments:
[1] = molecular target: HRAS wild-type protein (Homo sapiens, UniProt P01112); experiment: Binding to HRAS by surface plasmon resonance (SPR), KD and KD ratio to KRAS
Sequence of HRAS wild-type protein (P01112 whole entry): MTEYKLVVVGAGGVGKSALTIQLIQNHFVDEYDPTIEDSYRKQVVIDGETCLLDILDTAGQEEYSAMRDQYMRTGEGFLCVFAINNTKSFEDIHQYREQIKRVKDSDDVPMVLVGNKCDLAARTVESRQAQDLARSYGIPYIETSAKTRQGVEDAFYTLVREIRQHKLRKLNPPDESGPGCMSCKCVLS
Summary of the method: (§1)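 Single-cycle kinetics on GDP-loaded biotin-Avi RAS captured to ~100–300 RU; 75 s ascending injections, 100 µL/min, 30°C. HBS pH 7.4 + 10 mM MgCl2/10 µM GDP/4% DMSO. 1:1 fit, KD.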

[2] = tested on: human lung cancer strain NCI-H441; assay type: cell-based
Summary of the method: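 Proliferation was scored by […] measured after the reagent was added to cultures kept at 37°C in 5% carbon dioxide.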

[3] = molecular target: GDP-bound NRAS wild-type protein (Homo sapiens, UniProt P01111); experiment: Binding to NRAS by surface plasmon resonance (SPR), KD and KD ratio to KRAS
Sequence of GDP-bound NRAS wild-type protein (P01111 whole entry): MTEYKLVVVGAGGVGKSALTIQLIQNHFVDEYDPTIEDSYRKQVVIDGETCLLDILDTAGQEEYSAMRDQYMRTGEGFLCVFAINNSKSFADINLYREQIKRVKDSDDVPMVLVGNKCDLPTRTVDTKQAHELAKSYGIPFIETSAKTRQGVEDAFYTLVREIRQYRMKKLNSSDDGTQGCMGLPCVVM
Summary of the method: as §1

[4] = ratio of KD for HRAS wild-type protein to KD for KRAS
[5] = ratio of KD for GDP-bound NRAS wild-type protein to KD for KRAS
[6] = ratio of KD value for HRAS wild-type protein to KD value for KRAS (SPR)
[7] = ratio of KD value for GDP-bound NRAS wild-type protein to KD value for KRAS (SPR)
[8] = ratio of the KD value with respect to HRAS wild-type protein to the KD value with respect to KRAS
[9] = ratio of the KD value with respect to GDP-bound NRAS wild-type protein to the KD value with respect to KRAS

IC50 [2] [nM] | SMILES | HRAS /KRAS [1, 4] | NRAS /KRAS [3, 5] | HRAS /KRAS [1, 8] | NRAS /KRAS [3, 9] | also measured
46.3 | CCC[C@H]1C(=O)N[C@@H](C2CCCCC2)C(=O)N(C)CC(=O)N(C)[C@H]2C/C=C\CCN(C2=O)[C@@H](Cc2ccc(C(F)(F)F)cc2)C(=O)N(C)CC(=O)N[C@@H](CCc2ccc(C(F)(F)F)c(Cl)c2)C(=O)N2C[C@H](OCC)C[C@H]2C(=O)NC2(CC(C)(C)C2)C(=O)N(C)[C@@H](CC(C)C)C(=O)N(C)[C@H](C(=O)N(C)C)CC(=O)N1C [PP3017] | A (a compound having 10 or more and less than 20 is denoted as A) | AA (a compound having 20 or more is denoted as AA) |  |  | 
3.6 | CCCOC[C@H]1C(=O)N[C@@H]([C@@H](C)CC)C(=O)N(C)CC(=O)N(C)[C@H]2C/C=C\CCN(C2=O)[C@@H](Cc2ccc(C(F)(F)F)cc2)C(=O)N(C)CC(=O)N[C@@H](CCc2cc(F)c(C(F)(F)F)c(F)c2)C(=O)N2C[C@H](OCC)C[C@H]2C(=O)NC2(CC(C)(C)C2)C(=O)N(C)[C@@H](C2CCCC2)C(=O)N(C)[C@H](C(=O)N(C)CC)CC(=O)N1C [PP1572] |  |  |  |  | HRAS /KRAS [1, 6]: A (a compound having 10 or more and less than 20 is denoted as A); NRAS /KRAS [3, 7]: A (a compound having 10 or more and less than 20 is denoted as A)
6.9 | CC[C@H](C)[C@@H]1NC(=O)[C@H](CC2CC2)N(C)C(=O)C[C@@H](C(=O)N(C)C)N(C)C(=O)[C@H](C2CCCC2)N(C)C(=O)C2(CCC2)NC(=O)[C@@H]2CC(F)(F)CN2C(=O)[C@H](CCc2cc(F)c(C(F)(F)F)c(F)c2)NC(=O)CN(C)C(=O)[C@H](Cc2ccc(C(F)(F)F)cc2)N2CC/C=C\C[C@@H](C2=O)N(C)C(=O)CN(C)C1=O [PP1500] |  |  |  |  | HRAS /KRAS [1, 6]: A (a compound having 10 or more and less than 20 is denoted as A); NRAS /KRAS [3, 7]: A (a compound having 10 or more and less than 20 is denoted as A)
15.6 | CCC[C@H]1C(=O)N[C@@H]([C@@H](C)CC)C(=O)N(C2CC2)CC(=O)N(C)[C@H]2C/C=C\CCN(C2=O)[C@@H](CC2CCC(F)(F)CC2)C(=O)N(C)CC(=O)N[C@@H](CCc2ccc(C(F)(F)F)c(OC)c2)C(=O)N2C[C@H](OCC)C[C@H]2C(=O)N(C)C2(CCC2)C(=O)N(C)[C@@H](C2CCCC2)C(=O)N(C)[C@H](C(=O)N(C)C)CC(=O)N1C [PP2352] |  |  | A (a compound having 10 or more and less than 20 is denoted as A) | A (a compound having 10 or more and less than 20 is denoted as A) | 
15.6 | C=CC[C@H]1C(=O)N[C@@H]([C@@H](C)CC)C(=O)N(C)CC(=O)N(C)[C@H]2CCCCCN(C2=O)[C@@H](Cc2ccc(C(F)(F)F)cc2)C(=O)N(C)CC(=O)N[C@@H](CCc2cc(F)c(C(F)(F)F)c(F)c2)C(=O)N2C[C@H](OCC)C[C@H]2C(=O)NC2(CCC2)C(=O)N(C)[C@@H](C2CCCC2)C(=O)N(C)[C@H](C(=O)N(C)C)CC(=O)N1C [PP0665] |  |  | B (a compound having 3 or more and less than 10 is denoted as B) | B (a compound having 3 or more and less than 10 is denoted as B) | 
35.2 | C#CC[C@H]1C(=O)N[C@@H]([C@@H](C)CC)C(=O)N(C)CC(=O)N(C)[C@H]2C/C=C\CCN(C2=O)[C@@H](Cc2ccc(C(F)(F)F)cc2)C(=O)N(C)CC(=O)N[C@@H](CCc2ccc(C(F)(F)F)c(OC)c2)C(=O)N2CCOC[C@H]2C(=O)NC2(CC(C)(C)C2)C(=O)N(C)[C@@H](C2CCCC2)C(=O)N(C)[C@H](C(=O)N(C)C)CC(=O)N1C [PP2905] | A (a compound having 10 or more and less than 20 is denoted as A) | AA (a compound having 20 or more is denoted as AA) |  |  | 
12.5 | CCC[C@H]1C(=O)N[C@@H]([C@@H](C)CC)C(=O)N2CCC[C@H]2C(=O)N(C)[C@H]2C/C=C\CCN(C2=O)[C@@H](Cc2ccc(C(F)(F)F)cc2)C(=O)N(C)CC(=O)N[C@@H](CCc2ccc(C(F)(F)F)c(OC)c2)C(=O)N2C[C@H](OCC)C[C@H]2C(=O)N(C)C2(CCC2)C(=O)N(C)[C@@H](C(CC)CC)C(=O)N(C)[C@H](C(=O)N(C)C)CC(=O)N1C [PP2317] |  |  | A (a compound having 10 or more and less than 20 is denoted as A) | A (a compound having 10 or more and less than 20 is denoted as A) | 
9.5 | CCO[C@@H]1C[C@H]2C(=O)NC3(CCC3)C(=O)N(C)[C@@H](C3CCCC3)C(=O)N(C)[C@H](C(=O)N(C)CC)CC(=O)N(C)[C@@H](CC(C)C)C(=O)N[C@@H]([C@@H](C)CC)C(=O)N(C)CC(=O)N(C)[C@H]3C/C=C\CCN(C3=O)[C@@H](Cc3ccc(C(F)(F)F)cc3)C(=O)N(C)CC(=O)N[C@@H](CCc3cc(F)c(C(F)(F)F)c(F)c3)C(=O)N2C1 [PP1300] |  |  |  |  | HRAS /KRAS ([1]; ratio of KD with respect to HRAS wild-type protein to KD with respect to KRAS): A (a compound having 10 or more and less than 20 is denoted as A); NRAS /KRAS ([3]; ratio of KD with respect to GDP-bound NRAS wild-type protein to KD with respect to KRAS): A (a compound having 10 or more and less than 20 is denoted as A)
14.4 | CC[C@H](C)[C@@H]1NC(=O)[C@H](CC(C)C)N(C)C(=O)C[C@@H](C(=O)N2CCOCC2)N(C)C(=O)[C@H](C2CCCC2)N(C)C(=O)C2(CCCC2)NC(=O)[C@@H]2CCCN2C(=O)[C@H](CCc2ccc(C(F)(F)F)c(Cl)c2)NC(=O)CN(C)C(=O)[C@H](Cc2ccc(C)cc2)N(CC)C(=O)CN(C)C(=O)CN(C)C1=O [PP0022] ([NMeL]I[Sar][Sar][NEtPhe(4-Me)][Sar][hPhe(3-Cl-4-CF3)]P[Ac5c][NMeGly(cPent)][NMeD]-Morpholide; lactam N-11) | C (A compound having a KD ratio of 0.1 or more and less than 3 is denoted as C) | B (a compound having 3 or more and less than 10 is denoted as B) |  |  | 
3.6 | CCCOC[C@H]1C(=O)N[C@@H]([C@@H](C)CC)C(=O)N(C)CC(=O)N(C)[C@H]2C/C=C\CCN(C2=O)[C@@H](Cc2ccc(C(F)(F)F)cc2)C(=O)N(C)CC(=O)N[C@@H](CCc2cc(F)c(C(F)(F)F)c(F)c2)C(=O)N2C[C@H](F)C[C@H]2C(=O)NC2(CC(C)(C)C2)C(=O)N(C)[C@@H](C2CCCC2)C(=O)N(C)[C@H](C(=O)N(C)CC)CC(=O)N1C [PP1697] |  |  |  |  | HRAS /KRAS [1, 6]: A (a compound having 10 or more and less than 20 is denoted as A); NRAS /KRAS [3, 7]: A (a compound having 10 or more and less than 20 is denoted as A)
2.4 | CC[C@H](C)[C@@H]1NC(=O)[C@@H]2CCCCCc3ccc(cc3)C[C@@H](C(=O)N(C)CC(=O)N[C@@H](CCc3ccc(C(F)(F)F)c(OC)c3)C(=O)N3CC4(CC4)C[C@H]3C(=O)NC3(CC(C)(C)C3)C(=O)N(C)[C@@H](C3CCCC3)C(=O)N(C)[C@H](C(=O)N(C)C)CC(=O)N2C)N2CC/C=C\C[C@@H](C2=O)N(C)C(=O)CN(C)C1=O [PP3074] | A (a compound having 10 or more and less than 20 is denoted as A) | A (a compound having 10 or more and less than 20 is denoted as A) |  |  | 
20.2 | CCO[C@@H]1C[C@H]2C(=O)NC3(CC(C)(C)C3)C(=O)N(C)[C@@H](C3CCCC3)C(=O)N(C)[C@H](C(=O)N(C)CC)CC(=O)N(C)[C@@H](C(C)C)C(=O)N[C@@H]([C@@H](C)CC)C(=O)N(C)CC(=O)N(C)[C@H]3C/C=C\CCN(C3=O)[C@@H](Cc3ccc(C(F)(F)F)cc3)C(=O)N(C)CC(=O)N[C@@H](CCc3ccc(C(F)(F)F)c(OC)c3)C(=O)N2C1 [PP1977] |  |  | A (a compound having 10 or more and less than 20 is denoted as A) | AA (a compound having 20 or more is denoted as AA) | 
58.1 | CCO[C@@H]1C[C@H]2C(=O)NC3(CCC3)C(=O)N(C)[C@@H](C3CCCC3)C(=O)N(C)[C@H](C(=O)N(C)C)CC(=O)N(C)[C@@H](CC)C(=O)N[C@@H]([C@@H](C)CC)C(=O)N(C)CC(=O)N(C)[C@H]3CCCCCN(C3=O)[C@@H](Cc3ccc(F)c(Cl)c3)C(=O)N(C)CC(=O)N[C@@H](CCc3cc(F)c(C(F)(F)F)c(F)c3)C(=O)N2C1 [PP0909] | B (a compound having 3 or more and less than 10 is denoted as B) | B (a compound having 3 or more and less than 10 is denoted as B) |  |  | 
4.6 | CCCN1C(=O)CN(C)C(=O)CNC(=O)[C@H]([C@@H](C)CC)NC(=O)[C@H](CC(C)C)N(C)C(=O)C[C@@H](C(=O)N(C)C)N(C)C(=O)[C@H](C2CCCC2)N(C)C(=O)C2(CCC2)NC(=O)[C@@H]2CCCN2C(=O)[C@H](CCc2ccc(C(F)(F)F)c(Cl)c2)NC(=O)CN(C)C(=O)[C@@H]1Cc1ccc(C(F)(F)F)cc1 [PP0418] ([NMeL]IG[Sar][NPrPhe(4-CF3)][Sar][hPhe(3-Cl-4-CF3)]P[Ac4c][NMeGly(cPent)][NMeD]-NMe2; lactam N-11) |  |  | C (A compound having a KD ratio of 0.1 or more and less than 3 is denoted as C) | B (a compound having 3 or more and less than 10 is denoted as B) | 
3.4 | CCO[C@@H]1C[C@H]2C(=O)NC3(CCC3)C(=O)N(C)[C@@H](C3CCCC3)C(=O)N(C)[C@H](C(=O)N(C)C)CC(=O)N(C)[C@@H](CC)C(=O)N[C@@H]([C@@H](C)CC)C(=O)N(C)CC(=O)N(C)[C@H]3C[C@H]4C[C@H]4CN(C3=O)[C@@H](Cc3ccc(C(F)(F)F)cc3)C(=O)N(C)CC(=O)N[C@@H](CCc3cc(F)c(C(F)(F)F)c(F)c3)C(=O)N2C1 [PP0830] | C (A compound having a KD ratio of 0.1 or more and less than 3 is denoted as C) | C (A compound having a KD ratio of 0.1 or more and less than 3 is denoted as C) |  |  | 
